Key:
[1] = tested on: HIST1H2BJ-GFP reporter iPSC nuclei; experiment: Live in situ nuclear imaging of chromatin condensation (CellProfiler); type: cell-based, human; conditions: TSA 0, 3.13, 6.25, 12.5 ng/mL, FIG. 1C,D
Method: Antibodies and Staining: All cells were fixed for 15 minutes with 4% paraformaldehyde in PBS (Sigma-Aldrich, St. Louis, Mo.) and permeabilized with 0.5% Triton™-X (Sigma-Aldrich) for >4 hours at room temperature before staining. Hoechst (H1399; Thermo Fisher Scientific, Waltham, Mass.) was used at 5 μg/mL with 15 min incubation at room temperature to stain nuclei. Primary antibodies were applied overnight at 4° C. in a blocking buffer of 5% donkey serum (Sigma-Aldrich) at the following concentrations: H3K9Me3 (ab8898; Abcam) 1:500; H3K9Ac (39918; Active Motif) 1:100; H3K27Me3 (C36B11; Cell Signaling Technology) 1:200. […]
After streamlining the gene editing strategy, the effect of TSA treatment on the gene editing efficiency of iPSCs was examined The iPSCs were pre-treated with TSA (0, 3.13, 6.25, and 12.5 ng/mL) and their nuclei imaged. […] The images were then used as inputs for a CellProfiler software pipeline to output the chromatin condensation % of the nuclei (data not shown), defined as the ratio of total heterochromatin intensity to the total nuclear intensity. […]

[2] = tested on: on-target and top off-target sites of HIST1H2BJ-GFP, AAVS1 S10, EMX1; experiment: Off-target analysis of edited iPSCs (CHANGE-seq/GUIDE-seq sites, rhAmpSeq); type: cell-based, human
Method: Genome-wide, off-target analysis: Genomic DNA from iPSCs was isolated using Gentra® Puregene® Kit (Qiagen) according to the manufacturer's instructions. CHANGE-seq was performed as described in the art. Briefly, purified genomic DNA was tagmented with a custom Tn5-transposome to an average length of 400 bp, followed by gap repair with Kapa HiFi HotStart Uracil+DNA Polymerase (KAPA Biosystems) and Taq DNA ligase (NEB). Gap-repaired tagmented DNA was treated with USER™ enzyme (NEB) and T4 polynucleotide kinase (NEB). Intramolecular circularization of the DNA was performed with T4 DNA ligase (NEB) and residual linear DNA was degraded by a cocktail of exonucleases containing Plasmid-Safe ATP-dependent DNase (Lucigen), Lambda exonuclease (NEB), and Exonuclease I (NEB). In vitro cleavage reactions were performed with 125 ng of exonuclease-treated circularized DNA, 90 nM of SpCas9 protein (NEB), NEB buffer 3.1 (NEB) and 270 nM of sgRNA, in a 50 μL volume. Cleaved products were A-tailed, ligated with a hairpin adaptor (NEB), treated with USER™ enzyme (NEB), and amplified by PCR with barcoded universal primers NEBNext® Multiplex Oligos for Illumina® (NEB), using Kapa HiFi Polymerase (KAPA Biosystems). Libraries were quantified by qPCR (KAPA Biosystems) and sequenced with 151 bp paired-end reads on an Illumina® NextSeq instrument. CHANGE-seq data analyses were performed using open-source CHANGE-seq analysis software.
To determine the indel frequency at CHANGE-seq-identified off-target sites, on and off-target sites for were amplified from iPSC genomic DNA obtained using rhAmpSeg™ system (IDT), and sequencing libraries were generated according to the manufacturer's instructions. Sequencing was then performed with 150-bp paired-end reads on an Illumina® Miniseq instrument. Analysis was performed using CRISPAltRations: IDT rhAmpSeq CRISPR analysis tool.
Highly sensitive genome-wide, off-target analysis for our TSA-based editing strategy was assayed by CHANGE-seq at HIST1H2BJ-GFP site, which yielded a frequency distribution of the potential off-target sites (FIG. 3A,B). Top 12 off-target sites were amplified from genomic DNA using the rhAmp-Seq system (IDT) and subsequently sequenced using the Illumina® MiniSeq™ system. Sequencing data was then analyzed using the CRISPAltRations tool, which allowed for quantitative analysis of observed indel mutations (data not shown). […] Furthermore, the highest normalized on-target edit ratio was obtained for TSA concentration of 6.25 ng/mL, representative of the optimal TSA concentration for generating gene editing iPSCs.

[3] = HIST1H2BJ-GFP, AAVS1 S10, EMX1, with TSA concentration, FIG. 3C-E

CC(/C=C/C(=O)NO)=C\[C@@H](C)C(=O)c1ccc(N(C)C)cc1 [TSA, Trichostatin A]
Chromatin condensation % (heterochromatin intensity to total nuclear intensity) [1]: decrease | TSA concentration giving highest normalized on-target edit ratio ([2]; AAVS1 S10 and EMX1 loci): 6.25 ng/mL | TSA concentration giving highest normalized on-target edit ratio ([2]; HIST1H2BJ-GFP site): 6.25 ng/mL | TSA concentration giving highest normalized on-target edit ratio ([2]; HIST1H2BJ-GFP, AAVS1 S10, EMX1, FIG. 3C-E): 6.25 ng/mL | Off-target indel % [2, 3]: remains the same | On-target indel % [2, 3]: increases | Indel % at off-target sites ([2]; top 12 off-target sites of HIST1H2BJ-GFP, upon TSA treatment): did not increase | Indel % at off-target sites ([2]; top off-target sites for AAVS1 S10 and EMX1 loci): no significant increase

Source: US20230272357A1, “METHODS OF GENOME EDITING INCLUDING CONTROLLED OPENING OF CHROMATIN” (Wisconsin Alumni Research Foundation, priority 2021, published 2023)
